Experimental data: the NIST ThermoML archive (doi:10.1021/je2013878)
Numbers after ± are expanded uncertainties.

Assay: activity coefficient (dimensionless); of the first substance listed, at infinite dilution; xn = mol fraction of the nth substance listed
Conditions: 313.15 K; 101 kPa; Liquid; Chromatography; x1 = 0

| SMILES | activity coefficient |
| --- | --- |
| CC(C)CC=O [3-methylbutanal] + O | 179 ± 19 |
| O=Cc1ccccc1 [benzaldehyde] + O | 570 ± 60 |
| CCCCCC=O [hexanal] + O | 601 ± 63 |

Second part, the compound after the results:

| activity coefficient | SMILES |
| --- | --- |
| 2160 ± 230 | C=CC(O)CCCCC (configuration not stated) [1-octen-3-ol] + O |
| 49 ± 5 | C=CC(O)CC (configuration not stated) [1-penten-3-ol] + O |
| 160 ± 17 | CCC(=O)C(C)=O [2,3-pentanedione] + O |
| 71 ± 7 | CCOC(C)=O [ethyl acetate] + O |
